Assay results: patent publication US20260167960A1, “METHODS AND COMPOSITIONS INCLUDING CONJUGATED DNAZYMES” (priority 2022, published 2026)

Test system: K. pneumoniae biofilm on silicon-coated latex Foley catheter
Assay: Flow-cell catheter-associated biofilm, CFU assay
Type: cell-based
Conditions: 2-hour perfusion; 750 or 1000 mcg/mL meropenem; FIG. 6A
Description: Catheters were then connected to a flow-cell system containing fresh 10% TSB, and fresh media was perfused through the catheter by a pump at 10 ml/hour at 37° C. After 24 hours, treatment solution was perfused into the catheter at 10 ml/hour at 37° C. for 2 hours. Bacteria were scraped from the catheter into 1 ml PBS, and decimal serial dilutions were performed. All dilutions were plated by drop-plating technique on LB agar plates. LB agar plates were incubated at 37° C., and CFU were counted the next morning.
To test the effect of conjugated DNAzymes on established, catheter-associated biofilms, K. pneumoniae were incubated in catheters for 2 hours in static conditions and then for 24 hours with fresh media flow, after which they were subject to a 2-hour perfusion with 750 or 1000 mcg/mL meropenem, alone or in combination with tocopherol-conjugated or cholesterol-conjugated DNAzymes. After the incubation, the tubing was cut open and bacteria were scraped from the inside of the tubing, after which the CFU were determined by replating and observing colony formation. […] When CFU formation was tested in plates containing a much lower concentration (10 mcg/mL) of meropenem, the prior treatment with conjugated DNAzymes+meropenem nearly completely abolished colony formation (FIG. 6B), showing that antibiotic resistance was largely, if not entirely, abrogated in the disrupted biofilms.

SMILES: C[C@@H](O)[C@H]1C(=O)N2C(C(=O)O)=C(S[C@@H]3CN[C@H](C(=O)N(C)C)C3)[C@H](C)[C@H]12 [meropenem]
- disruption of established catheter-associated biofilms (CFU): not antibiotic alone, significantly disrupted the established biofilms
